{"source": "paper PMC8435859", "about": "(Frontiers in Cellular and Infection Microbiology, 2021)", "origin": "cited, not measured here", "key": {"CYP3A4": {"system": "CYP3A4", "parameters": "method as in ref Cheng SenSung et al., Journal of Agricultural & Food Chemistry, 2012, 60(1):124-8", "settings": "ref Cheng SenSung et al., Journal of Agricultural & Food Chemistry, 2012, 60(1):124-8; read-out: Ki, CYP3A4 inhibition; cited from earlier work"}, "CYP2B6": {"system": "CYP2B6", "parameters": "method as in ref Cheng SenSung et al., Journal of Agricultural & Food Chemistry, 2012, 60(1):124-8", "settings": "ref Cheng SenSung et al., Journal of Agricultural & Food Chemistry, 2012, 60(1):124-8; read-out: Ki, CYP2B6 inhibition; cited from earlier work"}, "GABA uptake": {"system": "GABA uptake", "parameters": "method as in Johnston G A R et al., Nature", "settings": "ref Johnston G A R et al., Nature; read-out: IC50, inhibition of GABA uptake; cited from earlier work"}, "EV71": {"system": "EV71", "settings": "ref Choi HJ et al., Biomol Ther (Seoul). 2016 Sep 1;24(5):552-8; cited from earlier work"}, "H. pylori": {"system": "H. pylori", "parameters": "method as in ref Sales SM et al., Biomedicine & Pharmacotherapy, 2018, 103:1577-1584", "settings": "ref Sales SM et al., Biomedicine & Pharmacotherapy, 2018, 103:1577-1584; cited from earlier work"}, "MCF-7": {"system": "MCF-7", "parameters": "method as in ref Sales SM et al., Biomedicine & Pharmacotherapy, 2018, 103:1577-1584", "settings": "one value printed for MCF-7 & MDA-MB-231; ref Sales SM et al., Biomedicine & Pharmacotherapy, 2018, 103:1577-1584; read-out: IC50, decreased MCF-7 survival; cited from earlier work"}, "MDA-MB-231": {"system": "MDA-MB-231", "parameters": "method as in ref Sales SM et al., Biomedicine & Pharmacotherapy, 2018, 103:1577-1584", "settings": "one value printed for MCF-7 & MDA-MB-231; ref Sales SM et al., Biomedicine & Pharmacotherapy, 2018, 103:1577-1584; read-out: IC50, decreased MDA-MB-231 survival; cited from earlier work"}}, "note": "Counter-ions that a name gives are not always drawn."}
{"smiles": "C[C@@H]1CC[C@H]2C(C)(C)[C@H]3C[C@@]12CC[C@@]3(C)O", "note": "[Cedrol]", "values": [{"measurement": "Ki", "setting": "CYP3A4", "result": 3.4, "unit": "µM"}, {"measurement": "Ki", "setting": "CYP2B6", "result": 0.9, "unit": "µM"}]}
{"smiles": "O=C(O)C1=CCCNC1", "note": "[Guvacine hydrochloride]", "values": [{"measurement": "IC50", "setting": "GABA uptake", "result": 10, "unit": "µM"}]}
{"smiles": "O=c1cc(-c2ccccc2)oc2c(O)c(O)cc(O)c12", "note": "[Norwogonin]", "values": [{"measurement": "IC50, antiviral activity against Enterovirus 71", "setting": "EV71", "result": "Norwogonin, isolated from Scutellaria baicalensis Georgi, possesses antiviral activity against Enterovirus 71 (IC50: 31.83 μg/ml)."}]}
{"smiles": "CCCCCCCCOC(=O)c1cc(O)c(O)c(O)c1", "note": "[Octyl gallate]", "values": [{"measurement": "minimum inhibitory concentration (MIC) against H. pylori", "setting": "H. pylori", "result": 125, "unit": "µg/mL"}, {"measurement": "IC50", "setting": "MCF-7", "result": 40, "unit": "µM"}, {"measurement": "IC50", "setting": "MDA-MB-231", "result": 40, "unit": "µM"}]}
